From patent publication US4570006A, “Amidine compound, process for producing same and anti-complement agent comprising same” (Torii & Co. Ltd., priority 1981, dated 1986)

Tested on: complement
Assay: Inhibition of complement mediated hemolysis
Type: cell-based
Experimental: The complement mediated hemolysis is widely used as a means to determine the titration of complement. The principle of this method is based on the fact that hemolysis if caused by the activation of complement, when the latter is added to a complex (immune complex) of erythrocytes and the antibody thereof. The degree of hemolysis varies in proportion to the amount of complement added. Therefore, when a known amount of complement admixed with a Cl esterase inhibitor is used, the hemolysis must be suppressed in proportion to the inhibitory activity.
The anti-Cl esterase (Clr, Cls) activity was determined according to the method of Okamura et al. [K. Okamura, M. Muramatsu and B. Fujii, Biochem. Biophys. […] The figures in Table 2 have the following meanings: […]

Row | Structure (SMILES) | Inhibition of complement mediated hemolysis (%) (compound at 1 × 10^-4) | Inhibition of complement mediated hemolysis (%) (compound at 1 × 10^-5) | Inhibition of complement mediated hemolysis (%) (compound at 1 × 10^-7) | Inhibition of complement mediated hemolysis (%) (compound at 1 × 10^-6)
1 | CC(=O)c1ccc(C(=O)Oc2ccc(C(=N)N)cc2C(=O)c2ccccc2)cc1 [Compound 53] | 87.5 | 25.2 | 3.5 | –
2 | COc1ccccc1C(=O)Oc1ccc(C(=N)N)cc1C(=O)c1ccccc1 [Compound 41] | 66.7 | 9.3 | 0 | 0
3 | N=C(N)c1ccc(OC(=O)c2ccc(S(N)(=O)=O)cc2)c(C(=O)c2ccccc2)c1 [Compound 67] | 99.2 | 99.2 | 57.5 | 96.9
4 | N=C(N)c1ccc(OC(=O)c2ccc(S(N)(=O)=O)cc2)c([N+](=O)[O-])c1 [Compound 68] | 100 | 92.9 | 5.8 | 50.6
5 | N=C(N)NCCCCCC(=O)Oc1ccc(C(=N)N)cc1C(=O)c1ccccc1 [Compound 15] | 98.8 | 81.7 | 0 | 12.7
6 | COc1cc(C(=N)N)ccc1OC(=O)CCCc1ccc(N)cc1 [Compound 65, 4-amidino-2-methoxyphenyl 4-(4-aminophenyl)butyrate] | 81.7 | 9.8 | 0 | 0
7 | CC(C(=O)Oc1ccc(C(=N)N)cc1C(=O)c1ccccc1)c1ccc(Cl)cc1 (centres unmarked) [Compound 86] | 100 | 97.1 | 11.0 | 53.6
8 | COc1cc(C(=N)N)ccc1OC(=O)C1CCCCC1 [Compound 9] | – | 16.2 | 0 | 2.5
9 | CC(=O)Oc1ccc(CCC(=O)Oc2ccc(C(=N)N)cc2C(=O)c2ccccc2)cc1 [Compound 55, 4-amidino-2-benzoylphenyl 3-(4-acetyloxy)phenylpropionate] | 100 | 96.9 | 3.5 | 60.8
10 | Cc1cccc(C(=O)Oc2ccc(C(=N)N)cc2[N+](=O)[O-])c1 [Compound 36] | 100 | 100 | 90.4 | 100
11 | COc1cc(C(=N)N)ccc1OC(=O)CC(C)C [Compound 3, 4-amidino-2-methoxyphenyl isovalerate] | 44.4 | 5.0 | 0 | 18.0
12 | CCCCCCC(=O)Oc1ccc(C(=N)N)cc1C(=O)c1ccccc1 [Compound 4] | 95.0 | 67.2 | 0 | 8.7
13 | N=C(N)Nc1ccc(C(=O)Nc2cc(C(=N)N)ccc2OC(=O)c2ccc(NC(=N)N)cc2)cc1 [Compound 73, 4-amidino-2-(4-guanidinobenzoylamino)phenyl 4-guanidinobenzoate] | 100 | 100 | 46.1 | 89.9
14 | N=C(N)c1ccc(OC(=O)c2ccc(CN)cc2)c(C(=O)c2ccccc2)c1 [Compound 64] | 100 | 100 | 75.7 | 97.1
15 | CC(=O)N[C@@H](CC(C)C)C(=O)N[C@@H](CC(C)C)C(=O)N[C@H](C=O)CCCNC(=N)N [Leupeptin, reference compound] | 97 | 52 | 0 | 0
16 | COc1cccc(CC(=O)Oc2ccc(C(=N)N)cc2OC)c1 [Compound 43] | 95.0 | 50.4 | 0 | 3.7
17 | COc1cc(C(=N)N)ccc1OC(=O)CCc1ccccc1 [Compound 32, 4-amidino-2-methoxyphenyl 3-phenylpropionate] | 63.9 | 97.5 | 0 | 7.1
18 | N=C(N)c1ccc(OC(=O)c2ccc(CNC(=O)OCc3ccccc3)cc2)c(C(=O)c2ccccc2)c1 [Compound 63] | 100 | 100 | 94.5 | 98.0
19 | CC(C)Cc1ccc(C(C)C(=O)Oc2ccc(C(=N)N)cc2C(=O)c2ccccc2)cc1 (centres unmarked) [Compound 40] | 87.5 | 68.1 | 2.0 | 7.8
